Data as given in article PMC5575254, “An allosteric ligand-binding site in the extracellular cap of K2P channels” (Nature Communications, 2017).

How the values were obtained:
[1] = test system: K2P channels; parameters: method as in PMID 9628867, PMID 8605869; settings: ref [26], [27]; cited from earlier work
[2] = molecular target: T1, TREK-2 (Homo sapiens, UniProt P57789); experiment: Whole-cell voltage clamp of CHO cells expressing TREK-2; type: cell-based; settings: mean ± s.e.m
T1 construct: expressed in transfected cells; host or cells: CHO cells, transient transfection
T1 sequence (P57789 1-538): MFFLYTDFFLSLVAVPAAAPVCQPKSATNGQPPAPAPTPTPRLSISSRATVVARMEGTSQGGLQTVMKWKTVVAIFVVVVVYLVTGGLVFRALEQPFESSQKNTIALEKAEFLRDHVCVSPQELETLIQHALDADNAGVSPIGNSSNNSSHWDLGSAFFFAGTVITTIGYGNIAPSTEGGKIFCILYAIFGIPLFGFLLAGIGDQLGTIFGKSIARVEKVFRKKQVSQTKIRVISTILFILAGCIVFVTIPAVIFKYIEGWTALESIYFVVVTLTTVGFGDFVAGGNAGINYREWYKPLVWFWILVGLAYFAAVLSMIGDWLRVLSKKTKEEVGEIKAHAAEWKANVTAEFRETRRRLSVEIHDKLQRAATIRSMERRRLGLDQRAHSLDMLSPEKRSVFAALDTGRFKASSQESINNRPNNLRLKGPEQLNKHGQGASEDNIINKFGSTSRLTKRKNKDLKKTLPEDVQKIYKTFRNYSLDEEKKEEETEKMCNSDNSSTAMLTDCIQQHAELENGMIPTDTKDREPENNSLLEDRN
From the text: (§1) cDNA of the human TREK-1, TREK-2 and TRAAK channels were subcloned into the pEGFPN1 expression vector (Invitrogen), respectively. Mutations were introduced into TREK-1 or TRAAK by PCR using the QuickChange XL sitedirected mutagenesis kit (Agilent Technologies) and were subsequently confirmed by DNA sequencing.
(§2) Chinese hamster ovary (CHO) cells were provided by the Cell Bank of Chinese Academy of Sciences (Shanghai, China). CHO cells were maintained in DMEM/F12 (Gibco) supplemented with 10% fetal bovine serum (Gibco) and 100 μg ml^−1 penicillin-streptomycin (Cellgro) in a humidified incubator at 37 °C (5% CO2). For electrophysiology experiments, cells plated in 35 mm tissue culture dishes (Corning Incorporated) were transiently transfected with the plasmids using PolyJet™ reagent (SignaGen) according to the manufacturer’s instructions. Primers used in this study are listed in Supplementary Table 4.
(§3) All electrophysiological recordings were obtained using patch-clamp recordings in two different configurations: (1) whole cell for macroscopic current dose–response curves; and (2) outside-out and inside-out for macroscopic currents recordings.
(§4) All patch-clamp recordings were conducted 36–96 h after transfection with an Axopatch-200B amplifier (Molecular Devices) at room temperature (23–25 °C). The microelectrodes fashioned from 1.5 mm thin-walled borosilicate glass with filament were pulled from Flaming/Brown type micropipette puller (P-97; SUTTER INSTRUMENT) with the resistances of 3–7 MΩ (whole cell) or 7–15 MΩ (outside-out) when filled with a solution containing (in mM): 140 KCl, 2 MgCl2, 10 EGTA, 1 CaCl2, 10 HEPES (pH 7.3, adjusted with KOH). External solution contained (in mM): 150 NaCl, 5 KCl, 0.5 CaCl2, 1.2 MgCl2, 10 HEPES (pH 7.3, adjusted with NaOH). The current signals were filtered at 1 kHz and digitized at a 10 kHz sampling frequency by using DigiData 1440 A.
(§5) Data of whole-cell voltage clamp experiments were fitted using doseResp function. The half inhibition concentrations were derived from fits of the dose–response curves to the function:1 I/I0=A1+A2-A1/1+10^logx0-xP, where I 0 and I are current amplitudes before and after application of inhibitors; A 1 and A 2 are constants between 0 and 1; x is the concentration of inhibitor; x o is the concentration when 50% inhibition was reached (IC50), P is the Hill constant.

[3] = molecular target: T2, TREK-1 channel (Homo sapiens, UniProt O95069); experiment: Whole-cell voltage clamp of CHO cells transiently transfected with TREK-1; type: cell-based; settings: whole-cell, CHO cells, WT TREK-1, mean ± s.e.m; for IC50: read-out: half-maximal inhibition concentration (IC50), TREK-1
T2 construct: expressed in transfected cells; host or cells: CHO cells, transient transfection
T2 sequence (O95069 1-411 isoform O95069-2): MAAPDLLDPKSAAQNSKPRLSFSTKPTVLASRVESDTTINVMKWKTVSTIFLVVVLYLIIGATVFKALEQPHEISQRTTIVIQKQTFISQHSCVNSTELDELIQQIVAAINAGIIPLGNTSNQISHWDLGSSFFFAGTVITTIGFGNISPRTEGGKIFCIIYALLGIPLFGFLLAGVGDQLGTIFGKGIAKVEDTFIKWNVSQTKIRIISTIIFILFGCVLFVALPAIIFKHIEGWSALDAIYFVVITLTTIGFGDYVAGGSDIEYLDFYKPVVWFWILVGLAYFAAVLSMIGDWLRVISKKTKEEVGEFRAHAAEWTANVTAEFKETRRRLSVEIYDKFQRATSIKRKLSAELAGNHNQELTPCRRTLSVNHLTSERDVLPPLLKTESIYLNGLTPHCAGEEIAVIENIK
From the text: as §1, §2, §3, §4, §5

[4] = molecular target: T3, TRAAK (Homo sapiens, UniProt Q9NYG8); experiment: Whole-cell voltage clamp of CHO cells expressing TRAAK; type: cell-based; settings: for IC50: whole-cell, CHO cells, WT TRAAK, mean ± s.e.m
T3 construct: expressed in transfected cells; host or cells: CHO cells, transient transfection
T3 sequence (Q9NYG8 1-393): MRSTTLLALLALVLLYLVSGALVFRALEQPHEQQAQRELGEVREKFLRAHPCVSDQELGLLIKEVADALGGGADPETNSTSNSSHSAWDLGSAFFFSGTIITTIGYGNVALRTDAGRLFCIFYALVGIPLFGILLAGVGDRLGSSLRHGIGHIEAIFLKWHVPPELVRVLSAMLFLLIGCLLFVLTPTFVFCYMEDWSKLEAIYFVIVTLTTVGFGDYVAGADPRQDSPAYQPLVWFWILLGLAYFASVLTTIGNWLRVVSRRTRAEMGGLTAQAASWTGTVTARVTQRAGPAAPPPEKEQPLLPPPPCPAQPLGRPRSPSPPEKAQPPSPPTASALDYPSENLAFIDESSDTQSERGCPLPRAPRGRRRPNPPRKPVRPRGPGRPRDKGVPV
From the text: as §1, §2, §3, §4, §5

[5] = test system: mice; experiment: Forced swimming test; type: in vivo, Male C57BL/6 mice; settings: chronic i.p. administration 10 days; TKDC 0.5, 1, 5 mg kg-1; fluoxetine 10 mg kg-1; vs vehicle
Description: Male C57BL/6 mice, aged 8 weeks (weighing 18–20 g) were used for acute and chronic drug administration and behavioral tests. The mice were housed four per cage under a 12-h light–dark cycle. Mice were raised under stable conditions with food and water ad libitum. All animal studies and experimental procedures were approved by the Animal Care Committees of the Shanghai Institute of Materia Medica, Chinese Academy of Sciences, and experiments were carried out in accordance with EU Directive 2010/63/EU on the protection of animals used for scientific purposes. […] The mice were removed to a sound-attenuating testing room 3–4 h before testing. The behavioral tests were carried out 30 min and 24 h after acute and chronic drugs administration, respectively.
The mice were performed under normal light. The apparatus was a transparent Plexiglas cylinder with 30 cm height × 10 cm diameter and the water temperature at 23–25 °C were set to prevent mice from touching the bottom with their limbs. Mice were allowed to swim for 8 min, and their activity was videotaped. There was an extra 15-min swimming in the previous day. The duration of immobility defined as floating or remaining motionless was assessed. To avoid extremely active at the beginning of swimming, the first 2 min of swimming was also excluded as the tail suspension test. […]

[6] = test system: TREK channels; settings: ref [7], [16]; cited from earlier work
[7] = test system: TASK-3; parameters: method as in PMID 25409575, PMID 18417474, PMID 12606773, PMID 16513667; settings: binds E70; ref [22]-[25]; cited from earlier work
[8] = test system: TREK-1; parameters: method as in Braun et al. [22]; settings: ref Braun et al. [22]; cited from earlier work
[9] = test system: TREK-2; parameters: method as in PMID 25409575, PMID 18417474, PMID 12606773, PMID 16513667; settings: binds D135; ref [22]-[25]; cited from earlier work
[10] = test system: I110D TREK-1 mutant; parameters: method as in PMID 25409575; settings: ref [22]; cited from earlier work
[11] = test system: TREK-1; parameters: method as in earlier work; settings: ref [2] Borsotto M, et al. (2015); cited from earlier work

## Nc1ccncc1 [4-aminopyridine]
[1]
  sensitivity of K2P channels to classical potassium channel pore blockers: insensitivity

## O=C(CNc1ccc(Cl)cc1)N1CCc2ccccc2C1 [28NH, 2-((4-chlorophenyl)amino)-1-(3,4-dihydroisoquinolin-2(1H)-yl)ethanone]
[2]
  IC50, TREK-2: comparable to those observed for TKDC-induced inhibitions
[3]
  half-maximal inhibition concentration (IC50), TREK-1: comparable to those observed for TKDC-induced inhibitions
[4]; 28NH vs TKDC
  IC50 for TRAAK relative to the value obtained with TKDC: almost sevenfold lower
[4]
  IC50: 11.8 ± 2.1 µM

## COc1ccccc1C(=O)Nc1cc(C(C)C)ccc1O [TKN1]
[2]
  IC50: 4.4 ± 1 µM
[3]
  IC50: 6.5 ± 1.7 µM
[4]
  IC50: 15.7 ± 3.1 µM

## Cc1cc(NC(=O)c2cccs2)cc(-c2nc3ccccc3o2)c1O [TKN2]
[2]
  IC50: 1.7 ± 0.8 µM
[3]
  IC50: 3.8 ± 0.6 µM
[4]
  IC50: 10.3 ± 1.5 µM

## [Cs+] [cesium ion]
[1]
  sensitivity of K2P channels to classical potassium channel pore blockers: insensitivity

## CNCCC(Oc1ccc(C(F)(F)F)cc1)c1ccccc1 (centres unmarked) [fluoxetine, reference compound]
[5]
  immobility in the forced swimming test: did not show antidepressant effects
[6]
  effect on TREK channels: can also inhibit TREK channels

## N.N.N.N.N.N.N.N.N.N.N.N.N.N.[Cl-].[Cl-].[Cl-].[Cl-].[Cl-].[Cl-].[O-2].[O-2].[Ru+3].[Ru+3].[Ru+4] [ruthenium red]
[7]
  effect on TASK-3: inhibit
[8]
  sensitivity of TREK-1: not sensitive
[9]
  effect on TREK-2: inhibit
[10]
  effect on I110D TREK-1 mutant: inhibits

## CC[N+](CC)(CC)CC [tetraethylammonium]
[1]
  sensitivity of K2P channels to classical potassium channel pore blockers: insensitivity

## spadin
[11]
  effect on TREK-1: specifically blocks the TREK-1
